Measured values published in article PMC11434100, “Biomimetic Metal–Organic Framework Gated Nanoplatform for Sonodynamic Therapy against Extensively Drug Resistant Bacterial Lung Infection” (Advanced Science, 2024).
Converted amounts (≈) assume the structure as drawn.

Tests used:
XDR-AB = experiment: Drug sensitivity test of clinical strains (Table S2); type: cell-based, Acinetobacter baumannii; conditions: value in brackets; for MIC: Acinetobacter baumannii
XDR-PA = experiment: as above; type: cell-based, Pseudomonas aeruginosa; conditions: value in brackets; for MIC: Pseudomonas aeruginosa
XDR-Kp = experiment: as above; type: cell-based, Klebsiella pneumoniae; conditions: value in brackets; for MIC: Klebsiella pneumoniae
XDR-E. coli = experiment: as above; type: cell-based, Escherichia coli; conditions: value in brackets; for MIC: Escherichia coli
[1] = test system: XDR-AB (clinically isolated XDR Acinetobacter baumannii); experiment: Minimum inhibitory concentration, broth dilution (Table S1); type: cell-based; conditions: CLSI guidelines, 10^5 CFU mL−1, 24 h, 37 °C, visible growth
Procedure: (§1) Four clinically isolated XDR strains were cultured in LB media at 37 °C with rotation (180 rpm) overnight. […] The bacterial concentration was adjusted to 10^5 CFU mL^−1.

[2] = test system: XDR-E. coli (clinically isolated XDR Escherichia coli); experiment: as above; type: cell-based; conditions: CLSI guidelines, 10^5 CFU mL−1, 24 h, 37 °C, visible growth
Procedure: as §1

[3] = test system: XDR-Kp (clinically isolated XDR Klebsiella pneumoniae); experiment: as above; type: cell-based; conditions: CLSI guidelines, 10^5 CFU mL−1, 24 h, 37 °C, visible growth
Procedure: as §1

[4] = test system: XDR-PA (clinically isolated XDR Pseudomonas aeruginosa); experiment: as above; type: cell-based; conditions: CLSI guidelines, 10^5 CFU mL−1, 24 h, 37 °C, visible growth
Procedure: as §1

CN(C)c1cc(NC(=O)CNC(C)(C)C)c(O)c2c1C[C@H]1C[C@H]3[C@H](N(C)C)C(O)=C(C(N)=O)C(=O)[C@@]3(O)C(O)=C1C2=O [Tigecycline]
MIC (XDR-AB): 0.38 µg/mL (≈ 0.649 µM)

CO/N=C(\C(=O)N[C@@H]1C(=O)N2C(C(=O)[O-])=C(C[N+]3(C)CCCC3)CS[C@H]12)c1csc(N)n1 [Cefepime]
MIC (XDR-AB): ≥ 64 µg/mL
MIC (XDR-PA): ≥ 64 µg/mL
MIC (XDR-Kp): ≥ 64 µg/mL
MIC (XDR-E. coli): ≥ 64 µg/mL

Cc1nnc(SCC2=C(C(=O)O)N3C(=O)[C@@H](NC(=O)Cn4cnnn4)[C@H]3SC2)s1 [Cefazolin]
MIC (XDR-AB): ≥ 64 µg/mL
MIC (XDR-PA): ≥ 64 µg/mL
MIC (XDR-Kp): ≥ 64 µg/mL
MIC (XDR-E. coli): ≥ 64 µg/mL

NCC[C@H](O)C(=O)N[C@@H]1C[C@H](N)[C@@H](O[C@H]2O[C@H](CN)[C@@H](O)[C@H](O)[C@H]2O)[C@H](O)[C@H]1O[C@H]1O[C@H](CO)[C@@H](O)[C@H](N)[C@H]1O [Amikacin]
MIC (XDR-AB): ≥ 64 µg/mL
MIC (XDR-PA): ≥ 64 µg/mL
MIC (XDR-Kp): ≥ 64 µg/mL
MIC (XDR-E. coli): ≥ 64 µg/mL

CC1(C)S[C@@H]2[C@H](NC(=O)[C@H](N)c3ccccc3)C(=O)N2[C@H]1C(=O)O [Ampicillin]
MIC (XDR-AB): ≥ 32 µg/mL
MIC (XDR-PA): ≥ 32 µg/mL
MIC (XDR-Kp): ≥ 32 µg/mL
MIC (XDR-E. coli): ≥ 32 µg/mL

C[C@@H](O)[C@H]1C(=O)N2C(C(=O)O)=C(SCCN=CN)C[C@H]12 [Imipenem]
MIC (XDR-AB): ≥ 16 µg/mL
MIC (XDR-PA): ≥ 16 µg/mL
MIC (XDR-Kp): ≥ 16 µg/mL
MIC (XDR-E. coli): ≥ 16 µg/mL

Polymyxin B [PMB]
MIC [1]: 32 µg/mL
MIC [2]: 16 µg/mL
MIC [3]: 16 µg/mL
MIC [4]: 8 µg/mL
MIC (drug sensitivity test) (XDR-PA): 0.5 µg/mL
MIC (drug sensitivity test) (XDR-E. coli): 0.5 µg/mL

Gentamycin
MIC (drug sensitivity test) (XDR-AB): >= 16 µg mL-1
MIC (drug sensitivity test) (XDR-PA): >= 16 µg mL-1
MIC (drug sensitivity test) (XDR-Kp): >= 16 µg mL-1
MIC (drug sensitivity test) (XDR-E. coli): >= 16 µg mL-1

C[C@H]1COc2c(N3CCN(C)CC3)c(F)cc3c(=O)c(C(=O)O)cn1c23 [Levofloxacin]
MIC (XDR-AB): ≥ 8 µg/mL
MIC (XDR-PA): ≥ 8 µg/mL
MIC (XDR-Kp): ≥ 8 µg/mL
MIC (XDR-E. coli): 11 µg/mL (≈ 30.4 µM)

NC[C@H]1O[C@H](O[C@H]2[C@H](O)[C@@H](O[C@H]3O[C@H](CO)[C@@H](O)[C@H](N)[C@H]3O)[C@H](N)C[C@@H]2N)[C@H](N)C[C@@H]1O [Tobramycin]
MIC (XDR-AB): ≥ 16 µg/mL
MIC (XDR-PA): ≥ 16 µg/mL
MIC (XDR-Kp): ≥ 16 µg/mL
MIC (XDR-E. coli): ≥ 16 µg/mL

CC(C)(O/N=C(\C(=O)N[C@@H]1C(=O)N2C(C(=O)[O-])=C(C[n+]3ccccc3)CS[C@H]12)c1csc(N)n1)C(=O)O [Ceftazidime]
MIC (XDR-AB): ≥ 64 µg/mL
MIC (XDR-PA): ≥ 64 µg/mL
MIC (XDR-Kp): ≥ 64 µg/mL
MIC (XDR-E. coli): ≥ 64 µg/mL

CO[C@@]1(NC(=O)C2SC(=C(C(N)=O)C(=O)O)S2)C(=O)N2C(C(=O)O)=C(CSc3nnnn3C)CS[C@@H]21 (some centres unmarked) [Cefotetan]
MIC (XDR-AB): ≥ 64 µg/mL
MIC (XDR-PA): ≥ 64 µg/mL
MIC (XDR-Kp): ≥ 64 µg/mL
MIC (XDR-E. coli): ≥ 64 µg/mL
